In US20250115620A1, “BRIDGED TRICYCLIC CARBAMOYLPYRIDONE COMPOUNDS AND USES THEREOF” (Gilead Sciences, Inc., priority 2022, published 2025):
Read-outs that look alike come from different tables or passages of the source.

What was measured:
in vitro = conditions: human, uninfected MT-4 cells
HIV-1 (IIIB) = experiment: microbe, parasite or virus in culture; type: cell-based; conditions: Human immunodeficiency virus 1, IIIB, MT4, 120 h, read-out: MT4 EC50
Procedure: Compounds were tested in a high-throughput 384-well assay format for their ability to inhibit the replication of HIV-1 (IIIB) in MT-4 cells. Compounds were serially diluted (1:3) in DMSO on 384-well polypropylene plates and further diluted 200-fold into complete RPMI media (10% FBS, 1% P/S) using the Biotek Micro Flow and Labcyte ECHO acoustic dispenser. Each plate contained up to 8 test compounds, with negative (No Drug Control) and 5 μM AZT positive controls. MT-4 cells were pre-infected with 10 μL of either RPMI (mock-infected) or a fresh 1:250 dilution of HIV-1 IIIB concentrated virus stock. Infected and uninfected MT-4 cells were further diluted in complete RPMI media and added to each plate using a Micro Flow dispenser. After 5 days incubation in a humidified and temperature controlled incubator (37° C.), Cell Titer Glo (Promega) was added to the assay plates and chemiluminescence read using an Envision plate-reader.

pLAI reporter virus = experiment: microbe, parasite or virus in culture; type: cell-based, HIV; conditions: Human immunodeficiency virus 1, MT4, 72 h
[1] = HIV-1 (IIIB) in MT-4 cells, 5 days incubation, Cell Titer Glo

Row | Structure (SMILES) | CC50 at 5 days (in vitro) [nM] | EC50 (HIV-1 (IIIB); [1]) [nM] | EC50 (pLAI reporter virus; read-out: RLUC 50% HS EC50) [nM] | EC50 (pLAI reporter virus; read-out: RLUC CCM EC50) [nM] | EC50 (HIV-1 (IIIB)) [nM]
1 | CCC1=NO[C@@]2(CC[C@H](C)N3C[C@H]2n2cc(C(=O)NCc4ccc(F)cc4F)c(=O)c(O)c2C3=O)C1 [Example 8, (3′S,5S,7′R)—N-(2,4-difluorobenzyl)-3-ethyl-12′-hydroxy-3′-methyl-1′,11′-dioxo-1′,4′,5′,11′-tetrahydro-3′H,4H,7′H-spiro[isoxazole-5,6′-[2,7]methanopyrido[1,2-a][1,4]diazonine]-10′-carboxamide] | 14800 | 0.8 | 75.2 | 0.2 | –
2 | C[C@H]1CC[C@]2(CC(F)=NO2)[C@H]2CN1C(=O)c1c(O)c(=O)c(C(=O)NCc3c(F)cc(F)cc3F)cn12 [Example 82, (3′S,5S,7′R)-3-fluoro-12′-hydroxy-3′-methyl-1′,11′-dioxo-N-(2,4,6-trifluorobenzyl)-1′,4′,5′,11′-tetrahydro-3′H,4H,7′H-spiro[isoxazole-5,6′-[2,7]methanopyrido[1,2-a][1,4]diazonine]-10′-carboxamide] | 5460 | 7.1 | 186 | 1.3 | –
3 | C[C@H]1CC[C@]2(CC(CF)=NO2)[C@H]2CN1C(=O)c1c(O)c(=O)c(C(=O)NCc3c(F)cc(F)cc3F)cn12 [Example 19, (3′S,5S,7′R)-3-(fluoromethyl)-12′-hydroxy-3′-methyl-1′,11′-dioxo-N-(2,4,6-trifluorobenzyl)-1′,4′,5′,11′-tetrahydro-3′H,4H,7′H-spiro[isoxazole-5,6′-[2,7]methanopyrido[1,2-a][1,4]diazonine]-10′-carboxamide] | 22900 | – | 163 | 0.2 | 1
4 | C[C@H]1CC[C@]2(CC(OC3COC3)=NO2)[C@H]2CN1C(=O)c1c(O)c(=O)c(C(=O)NCc3ccc(F)cc3F)cn12 [Example 45, (3′S,5S,7′R)—N-(2,4-difluorobenzyl)-12′-hydroxy-3′-methyl-3-(oxetan-3-yloxy)-1′,11′-dioxo-1′,4′,5′,11′-tetrahydro-3′H,4H,7′H-spiro[isoxazole-5,6′-[2,7]methanopyrido[1,2-a][1,4]diazonine]-10′-carboxamide] | ≥ 50000 | 2 | 1.8 | 0.4 | –
5 | CO[C@@H]1CS[C@@]2(CC[C@H](C)N3C[C@H]2n2cc(C(=O)NCc4c(F)cc(F)cc4F)c(=O)c(O)c2C3=O)O1 (single isomer, unassigned) [170 (peak 4)] | 33100 | 1.7 | 14.5 | 0.3 | –
6 | [2H]C1C(OC)=NO[C@@]12CC[C@H](C)N1C[C@H]2n2cc(C(=O)NCc3c(F)cc(F)cc3F)c(=O)c(O)c2C1=O (stereo partly drawn) [Example 83, (3′S,5S,7′R)-12′-hydroxy-3-methoxy-3′-methyl-1′,11′-dioxo-N-(2,4,6-trifluorobenzyl)-1′,4′,5′,11′-tetrahydro-3′H,4H,7′H-spiro[isoxazole-5,6′-[2,7]methanopyrido[1,2-a][1,4]diazonine]-4-d-10′-carboxamide] | 16200 | 2.3 | 41.1 | 0.3 | –
7 | C[C@H]1CO[C@]2(CC[C@H](C)N3C[C@H]2n2cc(C(=O)NCc4c(F)cc(F)cc4F)c(=O)c(O)c2C3=O)O1 [Example 127, (2R,3′S,4S,7′R)-12′-hydroxy-3′,4-dimethyl-1′,11′-dioxo-N-(2,4,6-trifluorobenzyl)-1′,4′,5′,11′-tetrahydro-3′H,7′H-spiro[[1,3]dioxolane-2,6′-[2,7]methanopyrido[1,2-a][1,4]diazonine]-10′-carboxamide] | 49900 | 1.2 | 13.3 | 0.1 | –
8 | C[C@H]1CC[C@]2(CC(=O)N(Cc3ccc(C#N)cc3)O2)[C@H]2CN1C(=O)c1c(O)c(=O)c(C(=O)NCc3c(F)cc(F)cc3F)cn12 [Example 118, (3′S,5S,7′R)-2-(4-cyanobenzyl)-12′-hydroxy-3′-methyl-1′,3,11′-trioxo-N-(2,4,6-trifluorobenzyl)-1′,4′,5′,11′-tetrahydro-3′H,7′H-spiro[isoxazolidine-5,6′-[2,7]methanopyrido[1,2-a][1,4]diazonine]-10′-carboxamide] | ≥ 50000 | 2.6 | 0.4 | 0.4 | –
9 | CC1=NO[C@]2(CC[C@H](C)N3C[C@H]2n2cc(C(=O)NCc4c(F)cc(F)cc4F)c(=O)c(O)c2C3=O)C1 [Example 4, (3′S,5R,7′R)-12′-hydroxy-3,3′-dimethyl-1′,11′-dioxo-N-(2,4,6-trifluorobenzyl)-1′,4′,5′,11′-tetrahydro-3′H,4H,7′H-spiro[isoxazole-5,6′-[2,7]methanopyrido[1,2-a][1,4]diazonine]-10′-carboxamide] | ≥ 50000 | 5.7 | 4.6 | 3 | –
10 | CC1=NO[C@@]2(CC[C@H](CF)N3C[C@H]2n2cc(C(=O)NCc4ccc(F)cc4F)c(=O)c(O)c2C3=O)C1 [Example 155, (3′R,5S,7′R)—N-(2,4-difluorobenzyl)-3′-(fluoromethyl)-12′-hydroxy-3-methyl-1′,11′-dioxo-1′,4′,5′,11′-tetrahydro-3′H,4H,7′H-spiro[isoxazole-5,6′-[2,7]methanopyrido[1,2-a][1,4]diazonine]-10′-carboxamide] | 28400 | 1 | 59.8 | 0.5 | –
11 | COC1=NO[C@]2(CC[C@H](C)N3C[C@H]2n2cc(C(=O)NCc4c(F)cc(F)cc4F)c(=O)c(O)c2C3=O)C1 [Example 37, (3′S,5R,7′R)-12′-hydroxy-3-methoxy-3′-methyl-1′,11′-dioxo-N-(2,4,6-trifluorobenzyl)-1′,4′,5′,11′-tetrahydro-3′H,4H,7′H-spiro[isoxazole-5,6′-[2,7]methanopyrido[1,2-a][1,4]diazonine]-10′-carboxamide] | 49900 | 1.6 | 8.3 | 0.7 | –
12 | CC1=NO[C@@]2(CC[C@H](C)N3C[C@H]2n2cc(C(=O)NCc4ccc(F)c(Cl)c4F)c(=O)c(O)c2C3=O)[C@H]1C [Example 34, (3′S,4S,5S,7′R)—N-(3-chloro-2,4-difluorobenzyl)-12′-hydroxy-3,3′,4-trimethyl-1′,11′-dioxo-1′,4′,5′,11′-tetrahydro-3′H,4H,7′H-spiro[isoxazole-5,6′-[2,7]methanopyrido[1,2-a][1,4]diazonine]-10′-carboxamide] | 13600 | 0.6 | 76.7 | 0.2 | –
13 | COCCOC1=NO[C@@]2(CC[C@H](C)N3C[C@H]2n2cc(C(=O)NCc4c(F)cc(F)cc4F)c(=O)c(O)c2C3=O)C1 [Example 38, (3′S,5S,7′R)-12′-hydroxy-3-(2-methoxyethoxy)-3′-methyl-1′,11′-dioxo-N-(2,4,6-trifluorobenzyl)-1′,4′,5′,11′-tetrahydro-3′H,4H,7′H-spiro[isoxazole-5,6′-[2,7]methanopyrido[1,2-a][1,4]diazonine]-10′-carboxamide] | 22100 | 1.2 | 1.5 | 0.3 | –
14 | C[C@H]1CC[C@]2(CC(C(F)F)=NO2)[C@H]2CN1C(=O)c1c(O)c(=O)c(C(=O)NCc3ccc(F)cc3F)cn12 [Example 21, (3′S,5S,7′R)—N-(2,4-difluorobenzyl)-3-(difluoromethyl)-12′-hydroxy-3′-methyl-1′,11′-dioxo-1′,4′,5′,11′-tetrahydro-3′H,4H,7′H-spiro[isoxazole-5,6′-[2,7]methanopyrido[1,2-a][1,4]diazonine]-10′-carboxamide] | 29300 | 1.4 | 72.7 | 0.3 | –
15 | C[C@H]1CC[C@@]2(ON=C(CF)[C@@H]2O)[C@H]2CN1C(=O)c1c(O)c(=O)c(C(=O)NCc3ccc(F)cc3F)cn12 [Example 89, (3′S,4S,5R,7′R)—N-(2,4-difluorobenzyl)-3-(fluoromethyl)-4,12′-dihydroxy-3′-methyl-1′,11′-dioxo-1′,4′,5′,11′-tetrahydro-3′H,4H,7′H-spiro[isoxazole-5,6′-[2,7]methanopyrido[1,2-a][1,4]diazonine]-10′-carboxamide] | ≥ 50000 | 1.3 | 63.8 | 0.4 | –
16 | CC1=NO[C@@]2(CC[C@H](C)N3C[C@H]2n2cc(C(=O)NCc4ccc(F)cc4F)c(=O)c(O)c2C3=O)C1=O [Example 29, (3′S,5R,7′R)—N-(2,4-difluorobenzyl)-12′-hydroxy-3,3′-dimethyl-1′,4,11′-trioxo-1′,4′,5′,11′-tetrahydro-3′H,4H,7′H-spiro[isoxazole-5,6′-[2,7]methanopyrido[1,2-a][1,4]diazonine]-10′-carboxamide] | ≥ 50000 | 1.7 | 168 | 0.8 | –
17 | C[C@H]1CC[C@]2(COC(Cc3ccccc3)O2)[C@H]2CN1C(=O)c1c(O)c(=O)c(C(=O)NCc3c(F)cc(F)cc3F)cn12 (stereo partly drawn) [Example 135, (2R,3′S,4R,7′R)-2-benzyl-12′-hydroxy-3′-methyl-1′,11′-dioxo-N-(2,4,6-trifuorobenzyl)-1′,4′,5′,11′-tetrahydro-3′H, 7′H-spiro(f[,3]dioxolane-4,6′-[2,7]methanopyrido[1,2-a][1,4]diazonine]-10′-carboxamide] | 6880 | 7.1 | 581 | 2.6 | –
18 | C[C@H]1CC[C@@]2(COC(Cc3ccccc3)O2)[C@H]2CN1C(=O)c1c(O)c(=O)c(C(=O)NCc3c(F)cc(F)cc3F)cn12 (stereo partly drawn) [Example 136, (3′S,4S,7′R)-2-benzyl-12′-hydroxy-3′-methyl-1′,11′-dioxo-N-(2,4,6-trifluorobenzyl)-1′,4′,5′,11′-tetrahydro-3′H,7′H-spiro[[1,3]dioxolane-4,6′-[2,7]methanopyrido[1,2-a][1,4]diazonine]-10′-carboxamide] | 16600 | – | 8.7 | 1.7 | 5.8
